{"source": "patent US7309491B2", "about": "“Heat shock protein-based vaccines and immunotherapies” (priority 2003, dated 2007)", "key": {"CD8+ T cells": {"system": "CD8+ T cells", "type": "in vivo, B6 mice", "conditions": "mouse, in vivo"}, "[1]": {"system": "SIINFEKL-pulsed target cells", "design": "species or system mice", "conditions": "mouse, in vivo"}, "[2]": {"system": "modified to express ovalbumin (E.G7)", "design": "species or system B6 mice", "conditions": "mouse, in vivo"}, "B3Z cells": {"system": "B3Z cells", "assay": "in-vitro antigen presentation assay (IL-2 produced by B3Z cells)", "type": "cell-based", "source_text": "The in-vitro antigen presentation assay described above was utilized further in order to evaluate the formulations of the invention."}}, "note": "Where “and” joins values, the source holds several entries; their conditions need not be identical. Equal entries are not always repeated. Where two headings read alike, the source gives them in different places.", "data": [{"sequence": "NLLRLTGWFFRKIAYFYPELFFRKFAPGNYPAL", "values": [{"measurement": "Number of Spots per 300,000 cells: FAPGNYPAL (SEQ ID NO:891)", "setting": "CD8+ T cells", "result": "136 ± 6.6"}, {"measurement": "Number of Spots per 300,000 cells: IAYFYPEL (SEQ ID NO:904)", "setting": "CD8+ T cells", "result": "128 ± 9.2"}, {"measurement": "Number of Spots per 300,000 cells: RGYVYQGL (SEQ ID NO:879)", "setting": "CD8+ T cells", "result": "1.7 ± 0.8"}, {"measurement": "Number of Spots per 300,000 cells: SIINFEKL (SEQ ID NO:868)", "setting": "CD8+ T cells", "result": "1.7 ± 1.1"}]}, {"sequence": "NLLRLTGWRKSIINFEKL", "values": [{"measurement": "CTL % killing at 200:1 E/T", "setting": "[1]", "result": 24, "unit": "%"}, {"measurement": "Number of Spots per 400,000 cells: Con A positive control", "setting": "CD8+ T cells", "result": "842 ± 73 spots per 400,000 cells"}, {"measurement": "Number of Spots per 400,000 cells: Medium control", "setting": "CD8+ T cells", "result": "1.0 ± 1.0 spots per 400,000 cells"}, {"measurement": "Number of Spots per 400,000 cells: Unpulsed control", "setting": "CD8+ T cells", "result": "1.0 ± 1.0 spots per 400,000 cells"}, {"measurement": "Number of spots per 400,000 cells: SIINFEKL (SEQ ID NO:868)", "setting": "CD8+ T cells", "result": "24 ± 1 spots per 400,000 cells"}, {"measurement": "Number of spots per 400,000 cells: VSV control", "setting": "CD8+ T cells", "result": "5.0 ± 3.0 spots per 400,000 cells"}]}, {"sequence": "NLLRLTGWFFRKDAPIYTNV (SEQ ID NO:910) (Hybrid antigen)", "values": [{"measurement": "Number of Spots per 300,000 cells, Medium", "setting": "CD8+ T cells", "result": "0.7 ± 0.4 Spots per 300,000 cells"}, {"measurement": "Number of Spots per 300,000 cells, Response to Class I epitope when Class I and Class II hybrid antigen admixture is administered", "setting": "CD8+ T cells", "result": "13 ± 3.9 Spots per 300,000 cells"}, {"measurement": "Number of Spots per 300,000 cells, Response to Class I epitope when Class I hybrid antigen administered", "setting": "CD8+ T cells", "result": "2 ± 1.9 Spots per 300,000 cells"}, {"measurement": "Number of Spots per 300,000 cells, Splenocytes", "setting": "CD8+ T cells", "result": "0 ± 0 Spots per 300,000 cells"}]}, {"sequence": "FFRKSIINFEKLFFRKRGYVYQGL [reference compound]", "values": [{"measurement": "Number of Spots per 300,000 cells: Medium control", "setting": "CD8+ T cells", "result": "1.7 ± 0.4"}, {"measurement": "Number of Spots per 300,000 cells: RGYVYQGL (SEQ ID NO:879)", "setting": "CD8+ T cells", "result": "31 ± 5.5"}, {"measurement": "Number of Spots per 300,000 cells: SIINFEKL (SEQ ID NO:868)", "setting": "CD8+ T cells", "result": "8.3 ± 1.1"}]}, {"sequence": "NLLRLTGWFFRKSIINFEKL", "values": [{"measurement": "CTL assay: % killing at 200:1 E/T", "setting": "[1]", "result": "9.91 ± 5.57", "unit": "%"}, {"measurement": "number of mice with tumors after 31 days", "setting": "[2]", "result": "Three of 10"}, {"measurement": "Pg/ml IL-2 produced by B3Z cells", "setting": "B3Z cells", "result": "46 ± 11", "unit": "pg/mL"}, {"measurement": "Number of Spots per 4 × 10^5 CD8 T cells: Con A Positive control", "setting": "CD8+ T cells", "result": "459 ± 149"}, {"measurement": "Number of Spots per 4 × 10^5 CD8 T cells: Medium control", "setting": "CD8+ T cells", "result": "1.00 ± 1.00"}, {"measurement": "Number of Spots per 4 × 10^5 CD8 T cells: SIINFEKL (SEQ ID NO:868)", "setting": "CD8+ T cells", "result": "151 ± 20.7"}, {"measurement": "Number of Spots per 4 × 10^5 CD8 T cells: Unpulsed control", "setting": "CD8+ T cells", "result": "1.67 ± 0.58"}, {"measurement": "Number of Spots per 4 × 10^5 CD8 T cells: VSV control", "setting": "CD8+ T cells", "result": "0.00 ± 0.00"}, {"measurement": "Number of Spots per 300,000 CD8 T cells: Con A positive control", "setting": "CD8+ T cells", "result": "688 ± 41.7"}, {"measurement": "Number of Spots per 300,000 CD8 T cells: Medium control", "setting": "CD8+ T cells", "result": "0.00 ± 0.00"}, {"measurement": "Number of Spots per 300,000 CD8 T cells: SIINFEKL (SEQ ID NO:868)", "setting": "CD8+ T cells", "result": "211 ± 17.0"}, {"measurement": "Number of Spots per 300,000 CD8 T cells: Unpulsed control", "setting": "CD8+ T cells", "result": "0.50 ± 0.71"}, {"measurement": "Number of Spots per 300,000 CD8 T cells: VSV control", "setting": "CD8+ T cells", "result": "1.00 ± 0.00"}, {"measurement": "Number of Spots per 300,000 cells: Medium", "setting": "CD8+ T cells", "result": "0 ± 0"}, {"measurement": "Number of Spots per 300,000 cells: Medium control", "setting": "CD8+ T cells", "result": "0.67 ± 0.82"}, {"measurement": "Number of Spots per 300,000 cells: SIINFEKL (SEQ ID NO:868)", "setting": "CD8+ T cells", "result": "109 ± 14"}, {"measurement": "Number of Spots per 300,000 cells: Unpulsed Splenocytes", "setting": "CD8+ T cells", "result": "3.0 ± 2.0"}, {"measurement": "Number of Spots per 300,000 cells: Unpulsed control", "setting": "CD8+ T cells", "result": "0 ± 0"}, {"measurement": "Number of Spots per 300,000 cells: VSV control", "setting": "CD8+ T cells", "result": "0.67 ± 0.82"}, {"measurement": "Number of Spots per 400,000 cells: Con A positive control", "setting": "CD8+ T cells", "result": "930 ± 23 spots per 400,000 cells and 1007 ± 17 spots per 400,000 cells and 906 ± 17 spots per 400,000 cells"}, {"measurement": "Number of Spots per 400,000 cells: Medium control", "setting": "CD8+ T cells", "result": "1.0 ± 1.7 spots per 400,000 cells and 2.0 ± 0.41 spots per 400,000 cells and 1.33 ± 0.41 spots per 400,000 cells"}, {"measurement": "number of spots per 400,000 cells; immunized day 0, analyzed day 7", "setting": "CD8+ T cells", "result": "72 ± 5.0 spots per 400,000 cells"}, {"measurement": "number of spots per 400,000 cells; immunized day 0, analyzed day 21", "setting": "CD8+ T cells", "result": "42 ± 7.0 spots per 400,000 cells"}, {"measurement": "number of spots per 400,000 cells; immunized day 0, analyzed day 28", "setting": "CD8+ T cells", "result": "82 ± 11 spots per 400,000 cells"}, {"measurement": "number of spots per 400,000 cells; immunized days 0, 7, analyzed day 21", "setting": "CD8+ T cells", "result": "24 ± 6.0 spots per 400,000 cells"}, {"measurement": "number of spots per 400,000 cells; immunized days 0, 14, analyzed day 28", "setting": "CD8+ T cells", "result": "25 ± 9.0 spots per 400,000 cells"}, {"measurement": "Number of Spots per 300,000 cells: SIINFEKL", "setting": "CD8+ T cells; sc", "result": "11 ± 1.8"}]}, {"sequence": "NLLRLTGWFRSIINFEKL", "values": [{"measurement": "Number of Spots per 300,000 cells: Medium", "setting": "CD8+ T cells", "result": "0.67 ± 0.58"}, {"measurement": "Number of Spots per 300,000 cells: SIINFEKL (SEQ ID NO:868)", "setting": "CD8+ T cells", "result": "12 ± 2"}, {"measurement": "Number of Spots per 300,000 cells: Unpulsed Splenocytes", "setting": "CD8+ T cells", "result": "0.67 ± 0.58"}, {"measurement": "Number of Spots per 400,000 cells: Medium control", "setting": "CD8+ T cells", "result": "1.0 ± 1.7 spots per 400,000 cells"}, {"measurement": "Number of Spots per 400,000 cells: Unpulsed control", "setting": "CD8+ T cells", "result": "0.0 ± 0.0 spots per 400,000 cells"}, {"measurement": "Number of spots per 400,000 cells: VSV control", "setting": "CD8+ T cells", "result": "0.67 ± 0.58 spots per 400,000 cells"}, {"measurement": "Number of spots per 400,000 cells: SIINFEKL (SEQ ID NO:868)", "setting": "CD8+ T cells; sc", "result": "31 ± 5.7 spots per 400,000 cells"}]}, {"sequence": "NLLRLTGWFFRKSSWDFITV (SEQ ID NO:911) (Hybrid antigen)", "values": [{"measurement": "Number of Spots per 300,000 cells, Medium", "setting": "CD8+ T cells", "result": "0.7 ± 0.8 Spots per 300,000 cells"}, {"measurement": "Number of Spots per 300,000 cells, Response to Class I epitope when Class I and Class II hybrid antigen admixture is administered", "setting": "CD8+ T cells", "result": "98 ± 5.8 Spots per 300,000 cells"}, {"measurement": "Number of Spots per 300,000 cells, Response to Class I epitope when Class I hybrid antigen administered", "setting": "CD8+ T cells", "result": "18 ± 0.7 Spots per 300,000 cells"}, {"measurement": "Number of Spots per 300,000 cells, Splenocytes", "setting": "CD8+ T cells", "result": "0.7 ± 0.4 Spots per 300,000 cells"}]}]}
